SMILES strings stand for the structures. “And” between values parts separate entries of the source, which are not always exact repeats. Equal entries are not always repeated.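 Growth conditions: 96-well plates. Treatment: test compound, 48 hours, 5 concentrations. Analysis: linear interpolation between bracketing concentrations; unreached endpoints set to highest concentration. At the GI50, growth is halved.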 The source made the active and inactive calls. Rule as the data show it: active = GI50 up to about 1.1 µM and inactive = higher.

Test systems include HOP-92; MDA-MB-435; SK-MEL-2; K562; OVCAR-8; COLO 205; Hs-578T; IGROV-1; MDA-MB-231; A498; PC-3; HCT-15; SF-268; NCI-H23; RXF 393; HL-60; SR; CCRF-CEM; HCT-116; NCI/ADR-RES.
Common to all, as to test: NCI anticancer screen, dose series, 48 h

As to `N=c1c2c(=S)n(-c3ccccc3)c(=S)n(-c3ccccc3)c2nc(SCCN2CCCC2)n1-c1ccccc1`, the GI50 was 1.71 µM (inactive) with HOP-92; 1.87 µM (inactive) with MDA-MB-435; 5.94 µM (inactive) in the experiment with SK-MEL-2; 0.762 µM (active) in the experiment on K562; 2.01 µM (inactive) in the experiment with OVCAR-8; 1.55 µM (inactive) in the experiment with COLO 205. Besides, the GI50 in the experiment with Hs-578T is 3.9 µM (inactive); with IGROV-1, 1.77 µM (inactive); in the experiment with MDA-MB-231, 1.78 µM (inactive); with A498, 11 µM (inactive); in the experiment with PC-3, 1.75 µM (inactive); with HCT-15, 1.6 µM. The GI50 is 2.7 µM (inactive) in the experiment on SF-268; 2.9 µM (inactive) with NCI-H23; 1.41 µM (inactive) in the experiment with RXF 393; 0.183 µM (active) in the experiment with HL-60; 0.136 µM (active) in the experiment on SR; 0.347 µM (active) with CCRF-CEM. The results for the GI50 in the experiment on HCT-116 and in the experiment on NCI/ADR-RES were 2.09 µM (inactive) and 6.44 µM (inactive), respectively.
`CN(NC(=O)c1cccs1)C1=NCCCCN1`: the GI50 with HOP-92, in the experiment on MDA-MB-435, in the experiment with SK-MEL-2, in the experiment with K562, with OVCAR-8 and with COLO 205 was > 100 µM (inactive) in each case. Further, the GI50 in the experiment with Hs-578T is > 100 µM (inactive); in the experiment on IGROV-1, > 100 µM (inactive); with MDA-MB-231 it was > 100 µM (inactive); with A498, > 100 µM (inactive); in the experiment on PC-3 it was > 100 µM (inactive); with HCT-15, over 100 µM. The GI50 in the experiment with SF-268, with NCI-H23, with RXF 393, in the experiment with HL-60, in the experiment with SR and in the experiment on CCRF-CEM was > 100 µM (inactive) throughout. For the same compound, the GI50 with HCT-116 and with NCI/ADR-RES was > 100 µM (inactive) throughout.
`CCC1NC(=O)C(NC(=O)c2ncccc2O)C(C)OC(=O)C(c2ccccc2)NC(=O)C2CC(=O)CCN2C(=O)C(Cc2ccccc2)N(C)C(=O)C2CCCN2C1=O` (centres undefined): the GI50 with HOP-92, in the experiment with MDA-MB-435, in the experiment on SK-MEL-2, in the experiment on K562, with OVCAR-8 and in the experiment with COLO 205 was > 100 µM (inactive) in each case. For the same compound, the GI50 with Hs-578T was > 100 µM (inactive); in the experiment on IGROV-1, > 100 µM (inactive); in the experiment with MDA-MB-231 it was > 100 µM (inactive); in the experiment on A498, > 100 µM (inactive); in the experiment on PC-3, > 100 µM (inactive); with HCT-15, over 100 µM. Further, the GI50 in the experiment with SF-268 was > 100 µM (inactive); with NCI-H23 it was > 100 µM (inactive); in the experiment on RXF 393, > 100 µM (inactive); in the experiment with HL-60 it was 52.6 µM (inactive); with SR it was 37.4 µM (inactive); with CCRF-CEM, 41.5 µM (inactive). For the same compound, the GI50 in the experiment on HCT-116 and in the experiment with NCI/ADR-RES was > 100 µM (inactive) in each case.
On to `Cc1ccc(CC(Cc2ccc(C)cc2C(=O)O)C(=O)O)cc1` (centres undefined), for which the GI50 with HOP-92, with MDA-MB-435, in the experiment with SK-MEL-2, in the experiment on OVCAR-8, in the experiment on COLO 205 and in the experiment with Hs-578T was > 100 µM (inactive) each time. For the same compound, the GI50 in the experiment on IGROV-1 was > 100 µM (inactive); with MDA-MB-231 it was > 100 µM (inactive); in the experiment on A498 it was > 100 µM (inactive); in the experiment with PC-3, > 100 µM (inactive); in the experiment with HCT-15 it was over 100 µM; in the experiment with SF-268, > 100 µM (inactive). The GI50 in the experiment on NCI-H23, with RXF 393, in the experiment on HL-60, in the experiment with SR, in the experiment with CCRF-CEM and in the experiment on HCT-116 was > 100 µM (inactive) throughout. In addition, the GI50 in the experiment on NCI/ADR-RES was > 100 µM (inactive).
Consider `CC(=O)OC1COC(n2c(N)c(C#N)c(-c3ccccc3)c(C#N)c2=S)C(OC(C)=O)C1OC(C)=O` (centres undefined), for which the GI50 in the experiment with HOP-92 was 19.8 µM (inactive) and 14.8 µM (inactive); in the experiment with MDA-MB-435 it was 27.8 µM (inactive) and 24.3 µM (inactive); in the experiment with SK-MEL-2, 20 µM (inactive) and 27.2 µM (inactive); in the experiment with OVCAR-8 it was 31.6 µM (inactive) and 56.8 µM (inactive); in the experiment with COLO 205, 31.6 µM (inactive) and 31.3 µM (inactive); with Hs-578T it was 45.3 µM (inactive) and 37.4 µM (inactive). In addition, the GI50 in the experiment on IGROV-1 is > 100 µM (inactive) and 68.5 µM (inactive); with MDA-MB-231 it was 50.9 µM (inactive) and 56.6 µM (inactive); with A498 it was 24.8 µM (inactive) and 33.2 µM (inactive); in the experiment with PC-3, 43.9 µM (inactive) and 40.1 µM (inactive); in the experiment on HCT-15, 52.6 µM and 72.6 µM; in the experiment on SF-268 it was 36 µM (inactive). Moreover, the GI50 is 34.4 µM (inactive) and 33 µM (inactive) with RXF 393; 23.2 µM (inactive) with HL-60; 19.6 µM (inactive) and 22.2 µM (inactive) in the experiment with SR; 26.1 µM (inactive) and 35.2 µM (inactive) with CCRF-CEM; 45.5 µM (inactive) and 37.8 µM (inactive) in the experiment on HCT-116; > 100 µM (inactive) and 71.6 µM (inactive) in the experiment with NCI/ADR-RES.
Regarding `CO/N=C1\CC(NC(=O)C(F)(F)F)c2ccsc21` (centres undefined), the GI50 in the experiment with HOP-92, in the experiment on MDA-MB-435, with SK-MEL-2, with K562, in the experiment with OVCAR-8 and in the experiment with COLO 205 was > 100 µM (inactive) each time. In addition, the GI50 with Hs-578T is > 100 µM (inactive); with IGROV-1 it was > 100 µM (inactive); with MDA-MB-231, > 100 µM (inactive); in the experiment with A498 it was > 100 µM (inactive); in the experiment with PC-3 it was > 100 µM (inactive); in the experiment with HCT-15, over 100 µM. Further, the GI50 in the experiment with SF-268, in the experiment with NCI-H23, with RXF 393, in the experiment on HL-60, in the experiment with SR and in the experiment on CCRF-CEM was > 100 µM (inactive) in each case. Besides, the GI50 with HCT-116 and in the experiment with NCI/ADR-RES was > 100 µM (inactive) each time.
As for `O=C1CCC(CCc2nc3ccccc3[nH]2)(c2ccccc2)C(=O)N1` (centres undefined), the GI50 in the experiment with HOP-92 was 83.6 µM (inactive); with MDA-MB-435, > 100 µM (inactive); in the experiment on SK-MEL-2, > 100 µM (inactive); with K562, 64 µM (inactive); with OVCAR-8, > 100 µM (inactive); with COLO 205, > 100 µM (inactive). Further, the GI50 is 29.7 µM (inactive) in the experiment with Hs-578T; 64 µM (inactive) in the experiment with IGROV-1; > 100 µM (inactive) with MDA-MB-231; > 100 µM (inactive) with A498; > 100 µM (inactive) in the experiment with PC-3; over 100 µM in the experiment on HCT-15. Also, the GI50 with SF-268, with NCI-H23, in the experiment on RXF 393, with HL-60, in the experiment on SR and in the experiment on CCRF-CEM was > 100 µM (inactive) throughout. The GI50 with HCT-116 and with NCI/ADR-RES was > 100 µM (inactive) throughout.
`N=C1OC(c2c[nH]c3ccc(OCc4ccccc4)cc23)C(O)=C1O` (centres undefined): the GI50 in the experiment on HOP-92, in the experiment on MDA-MB-435, in the experiment on SK-MEL-2, with K562, in the experiment on OVCAR-8 and in the experiment on COLO 205 was > 100 µM (inactive) in each case. In addition, the GI50 in the experiment with Hs-578T was > 100 µM (inactive); in the experiment with IGROV-1 it was > 100 µM (inactive); in the experiment on MDA-MB-231 it was 74.5 µM (inactive); with A498, 59.2 µM (inactive); in the experiment on PC-3, > 100 µM (inactive); in the experiment on HCT-15, over 100 µM. Further, the GI50 in the experiment with SF-268 is > 100 µM (inactive); in the experiment with NCI-H23 it was > 100 µM (inactive); in the experiment on RXF 393, > 100 µM (inactive); in the experiment on HL-60, 71.1 µM (inactive); with SR it was > 100 µM (inactive); with HCT-116 it was > 100 µM (inactive). Besides, the GI50 with NCI/ADR-RES was > 100 µM (inactive).
Regarding `COc1cc2c3cc1Oc1cc(ccc1O)C[C@@H]1c4c(cc(OC)c(O)c4Oc4ccc(cc4)C[C@@H]3N(C)CC2)CC[N+]1(C)C`, the GI50 is 11.6 µM (inactive) in the experiment with HOP-92; 43.7 µM (inactive) in the experiment with MDA-MB-435; 90.2 µM (inactive) with SK-MEL-2; 42 µM (inactive) with K562; 58.7 µM (inactive) in the experiment on OVCAR-8; 77.1 µM (inactive) in the experiment with COLO 205. Further, the GI50 was 13.5 µM (inactive) in the experiment with Hs-578T; > 100 µM (inactive) with IGROV-1; 25.1 µM (inactive) with MDA-MB-231; 81.7 µM (inactive) with A498; 21.9 µM (inactive) in the experiment on PC-3; 70.1 µM with HCT-15. Further, the GI50 with SF-268 is 32.4 µM (inactive); in the experiment on NCI-H23 it was 52 µM (inactive); in the experiment on RXF 393, 13.6 µM (inactive); in the experiment with HL-60 it was > 100 µM (inactive); with SR, 24.8 µM (inactive); in the experiment on HCT-116, 48.4 µM (inactive). In addition, the GI50 in the experiment on NCI/ADR-RES was > 100 µM (inactive).
`CCOC(=O)Cn1c(=O)ccn(COCCO)c1=O`: the GI50 in the experiment with HOP-92, in the experiment with MDA-MB-435, in the experiment on SK-MEL-2, in the experiment on K562, with OVCAR-8 and in the experiment with COLO 205 was > 100 µM (inactive) throughout. Besides, the GI50 is > 100 µM (inactive) in the experiment with Hs-578T; > 100 µM (inactive) with IGROV-1; > 100 µM (inactive) with MDA-MB-231; > 100 µM (inactive) with A498; > 100 µM (inactive) in the experiment with PC-3; over 100 µM with HCT-15. The GI50 in the experiment with SF-268 is > 100 µM (inactive); with NCI-H23, > 100 µM (inactive); in the experiment on RXF 393, > 100 µM (inactive); in the experiment with HL-60, > 100 µM (inactive); in the experiment with SR it was > 10 µM (inactive); in the experiment on CCRF-CEM it was > 100 µM (inactive). Also, the GI50 in the experiment on NCI/ADR-RES was > 100 µM (inactive).

(Values after ChEMBL document CHEMBL1201862, “PubChem BioAssay data set” (2004).)
